The structures appear in SMILES notation. Calls of active or inactive are those of the source.

In one assay the test system is HEK293. Description: cells. The settings on record: Homo sapiens. Type of assay: functional, cell-based.
For assay [1], the target named is Nuclear receptor subfamily 0 group B member 1 (Homo sapiens, UniProt P51843). Description: Luminescence-based cell-based high throughput dose response assay for inhibitors of the orphan nuclear receptor subfamily 0, group B, member 1 (DAX1; NR0B1). [Related pubchem assays (depositor defined):AID504766, AID504790]. Type of assay: functional.
For assay [2], the system named is INS1. Nature of the assay: protection from cytokine-induced mitochondrial depolarization, dose response, cell-based, INS-1E, JC-1 fluorescence ratio, dry powder (AID 488931). It counts as functional. The settings on record: Rattus norvegicus.
The test system of assay [3] is BJ. Nature of the assay: cytotoxicity toward BJ-TERT fibroblasts, dose response, cell-based, RAS-independent, luminescence (AID 1933). It counts as functional. The settings on record: Homo sapiens.
In assay [4] the test system is BJ. Nature of the assay: cells. It counts as functional, cell-based. Conditions: Homo sapiens.
The test system of assay [5] is BJ. Description: cytotoxicity toward BJ-TERT-LT-ST fibroblasts, dose response, cell-based, RAS-independent, luminescence (AID 1935).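 Note: BJ fibroblasts immortalized with TERT plus LT and ST oncogenes.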 Type of assay: functional. The settings on record: Homo sapiens.
A short description of assay [6]: cytotoxicity toward DRD oncogenic fibroblasts, dose response, cell-based, non-viral oncogenic, luminescence (AID 1934). The settings on record: Homo sapiens. Type of assay: functional.
Assay [7] in a line: Luminescence Cell-Based Dose Retest to Confirm Inhibitors of Cancer Stem Cells. [Related pubchem assays (depositor defined):AID2717, AID2721]. It counts as functional. Conditions: Homo sapiens.
A further assay concerns Escherichia coli. Nature of the assay: microbe, parasite or virus in culture.
A short description of assay [8]: Fluorescence polarization-based biochemical high throughput dose response assay for activators of the Protein Kinase A-R1A (PKA-R1A) complex. [Related pubchem assays (depositor defined):AID504704, AID504707, AID504799, AID504800].
Assay [9] in a line: Fluorescence polarization-based biochemical high throughput dose response assay for activators of the Protein Kinase A-R2B (PKA-R2B) complex. [Related pubchem assays (depositor defined):AID504700, AID504704, AID504796, AID504797]. In general terms: In fluorescence polarisation assays a small probe gives low polarisation when free and higher when bound to something large.
Assay [10] in a line: THP-1 cell cytotoxicity, dose response, cytotoxicity control for non-replicating M. tuberculosis project (AID 489025). Type of assay: functional.
Assay [11] has as its target T1, Heat shock factor protein 1 (Mus musculus, UniProt P38532).
T1 sequence (P38532 whole entry): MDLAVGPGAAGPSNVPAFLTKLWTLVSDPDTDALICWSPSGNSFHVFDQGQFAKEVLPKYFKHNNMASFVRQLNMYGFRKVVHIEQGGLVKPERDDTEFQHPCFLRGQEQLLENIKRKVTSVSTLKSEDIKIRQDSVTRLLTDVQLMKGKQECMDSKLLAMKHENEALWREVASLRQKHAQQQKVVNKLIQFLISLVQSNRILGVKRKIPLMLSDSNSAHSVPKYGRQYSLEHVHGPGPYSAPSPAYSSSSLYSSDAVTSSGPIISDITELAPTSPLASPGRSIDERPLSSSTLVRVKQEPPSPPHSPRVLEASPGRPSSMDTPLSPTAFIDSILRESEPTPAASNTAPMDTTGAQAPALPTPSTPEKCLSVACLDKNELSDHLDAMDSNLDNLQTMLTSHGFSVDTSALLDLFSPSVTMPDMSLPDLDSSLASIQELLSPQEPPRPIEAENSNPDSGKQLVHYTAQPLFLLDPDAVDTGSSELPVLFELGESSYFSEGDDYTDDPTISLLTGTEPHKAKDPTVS
Nature of the assay: HSF1 potentiators in luciferase reporter cells, confirmation, cell-based, NIH3T3, luminescence, dose retest (AID 435004).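 Note: stress induced by proteasome inhibitor MG132 added 30 min after compound; luciferase reporter driven by HSF1 response element in NIH3T3 cells; actives raise luminescence as potentiators of the MG132 stress response.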 It counts as functional. On the technique in general: In a reporter assay the amount or activity of a reporter protein is the signal.

Assay [12] addresses T2, Microphthalmia-associated transcription factor (Homo sapiens, UniProt O75030).
T2 sequence (O75030 whole entry): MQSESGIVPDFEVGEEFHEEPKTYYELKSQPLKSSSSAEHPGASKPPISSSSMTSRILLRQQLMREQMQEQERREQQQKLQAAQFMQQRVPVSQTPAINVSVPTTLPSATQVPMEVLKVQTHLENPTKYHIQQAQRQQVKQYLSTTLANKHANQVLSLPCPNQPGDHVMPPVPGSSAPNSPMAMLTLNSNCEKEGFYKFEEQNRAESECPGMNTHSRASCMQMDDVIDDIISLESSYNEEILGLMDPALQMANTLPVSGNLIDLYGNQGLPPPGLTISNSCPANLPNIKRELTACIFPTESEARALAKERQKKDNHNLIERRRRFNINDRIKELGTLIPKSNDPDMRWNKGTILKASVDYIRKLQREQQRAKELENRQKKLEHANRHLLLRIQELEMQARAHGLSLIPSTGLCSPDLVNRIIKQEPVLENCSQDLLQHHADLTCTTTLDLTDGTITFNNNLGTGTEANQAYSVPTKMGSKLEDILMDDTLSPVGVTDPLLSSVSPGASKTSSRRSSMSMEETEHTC
Nature of the assay: TRPM1 promoter luciferase signal decrease, dose response, MITF inhibitor project, cell-based, SK-MEL-5, cherry-picked, set 3 (AID 493073).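 Note: SK-MEL-5 melanoma cells with luciferase driven by the MITF target TRPM1 promoter.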 Type of assay: functional.

A further assay in a line: cells. It counts as functional.
The test system of a further assay is CHO. Description: cytotoxicity in TLR9-MyD88 CHO cells, dose response, cytotoxicity control for TLR9-MyD88 binding inhibitor project, cell-based, luminescence (AID 588339).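 Note: CHO cells stably coexpressing TLR9 and MyD88 fusions from primary screen; compound exposure lasted 48 hours before viability readout.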 It counts as functional, hamster. Conditions: Cricetulus griseus.
The target in assay [13] is Heat shock protein HSP 90-alpha (Homo sapiens, UniProt P07900). It counts as functional, organism-based.
For another assay, the target named is Beta Lactamase (Pseudomonas aeruginosa, UniProt Q932Y6). Description: beta-lactamase reporter inhibitor potency, dose response, artefact control for TLR9-MyD88 binding inhibitor project, BLA reporter cells, FRET fluorescence (AID 588341).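 Note: cell based assay in CHO-K1 cells stably expressing beta-lactamase.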 It counts as cell-based.
Assay [14] deals with A-375. Description: MITF: Counter assay: A375 proliferation Measured in Cell-Based System Using Plate Reader - 2084-03_Inhibitor_Dose_DryPowder_Activity. [Related pubchem assays (depositor defined):AID488944]. Type of assay: functional. The settings on record: Homo sapiens.
Assay [15] deals with INS1. Description: beta cell apoptosis inhibitors, cytokine rescue, dose response, luminescence, retest (AID 449756).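 Note: cell death triggered by IL-1 beta plus TNF-alpha plus IFN-gamma mixture; protective hits raise ATP signal compared with cytokine alone wells.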 It counts as functional, cell-based. Conditions: Rattus norvegicus.
The test system of assay [16] is A-375. Description: A375 melanoma cell viability reduction, dose response, counter-screen for MITF modulator project, cherry-pick samples, set 2 (AID 540335). Type of assay: functional, cell-based. The settings on record: Homo sapiens. (Counterscreens check selectivity or assay interference.)
The nature of assay [17]: Shn3 3'UTR reporter inhibitors, dose response, cell-based, Clone20 osteoblasts, firefly luciferase, cherry-picked (AID 624132).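 Note: firefly luciferase luminescence from reporter carrying the Shn3 3'UTR in osteoblasts.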 It counts as functional.
A short description of assay [18]: HepG2 cell cytotoxicity, dose response, cytotoxicity control for Shn3 inhibitor project, CellTiter-Glo, cherry-picked (AID 624134). Type of assay: functional, cell-based.
Assay [19] in a line: control 3'UTR Renilla luciferase suppression, dose response, counter-screen for Shn3 inhibitor project, cell-based, Clone20-Shn3RL, cherry-picked (AID 624133). Type of assay: functional.

Sequence of Nuclear receptor subfamily 0 group B member 1 (P51843 whole entry): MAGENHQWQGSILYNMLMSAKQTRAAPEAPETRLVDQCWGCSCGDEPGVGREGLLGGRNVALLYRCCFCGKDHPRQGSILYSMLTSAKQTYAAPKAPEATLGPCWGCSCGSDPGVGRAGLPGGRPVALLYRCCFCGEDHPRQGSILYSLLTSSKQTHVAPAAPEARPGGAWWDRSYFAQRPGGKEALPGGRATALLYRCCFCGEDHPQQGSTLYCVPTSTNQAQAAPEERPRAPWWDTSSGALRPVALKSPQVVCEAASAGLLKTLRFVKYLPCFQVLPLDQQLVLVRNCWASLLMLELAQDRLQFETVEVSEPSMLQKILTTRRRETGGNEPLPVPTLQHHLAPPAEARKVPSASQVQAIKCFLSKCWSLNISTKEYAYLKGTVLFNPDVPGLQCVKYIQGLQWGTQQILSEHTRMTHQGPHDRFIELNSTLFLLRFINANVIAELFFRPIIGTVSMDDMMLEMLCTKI
Sequence of Beta Lactamase (Q932Y6 whole entry): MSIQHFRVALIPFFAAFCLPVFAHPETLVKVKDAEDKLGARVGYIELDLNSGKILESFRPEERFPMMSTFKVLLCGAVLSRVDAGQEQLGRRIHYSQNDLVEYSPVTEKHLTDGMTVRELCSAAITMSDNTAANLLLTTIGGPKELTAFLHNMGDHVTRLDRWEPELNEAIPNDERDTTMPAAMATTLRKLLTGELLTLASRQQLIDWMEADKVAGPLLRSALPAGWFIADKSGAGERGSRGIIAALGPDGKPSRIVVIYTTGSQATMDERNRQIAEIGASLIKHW

Regarding `Cc1cnc(C(=O)OCC(=O)NCCCc2ccccc2)cn1`, the IC50 (in the assay with HEK293; in [1]) was > 67.5 µM (inactive) throughout.

Consider `C[C@@H]1CN([C@@H](C)CO)C(=O)c2cccc(NC(=O)Nc3cccc4ccccc34)c2O[C@H]1CN(C)S(C)(=O)=O`, for which, in the assay on INS1 [2], the AC50 (as a rule, the concentration giving half of the maximal activity seen) was > 195 µM (inactive).

Take `COCCNC(=O)c1cnc2ccc(S(=O)(=O)N3CCc4ccccc43)cc2c1O`: the EC50 (as a rule, the concentration needed to bring the measured effect to its halfway point) in the assay on BJ [3] is > 150 µM (not active); with BJ [4], 7.76 µM (active); in the assay on BJ [5] it was > 150 µM (not active); in [6], 11.5 µM (active). Further, the AC50 in assay [7] was 2.32 µM (active); in the assay on Escherichia coli, 87.7 µM (active).

Take `CCCC(=O)Nc1ncnc2c1ncn2[C@@H]1O[C@@H]2COP(=O)(O)O[C@H]2[C@H]1OC(=O)CCC`: the EC50 in [8] was 4.48 µM (active); in [9], 5.38 µM (active).

As for `CCOC(=O)COc1ccc2ccccc2c1/C=C/[N+](=O)[O-]`, the cytotoxic concentration (CC50) (as a rule, the concentration giving 50% cytotoxicity) in assay [10] is 19.1 µM (active). Besides, in [11], the EC50 was 3.33 µM (inconclusive). The AC50 was 8.17 µM (active) in assay [12]; 4.28 µM (active) in assay [13]; > 35 µM (active) in the assay on A-375 [14]; > 60 µM (inactive) in the assay with INS1 [15]; > 35 µM (active) with A-375 [16]; 5.2 µM (active) in assay [17]. Besides, the AC50 was 20.9 µM (active) in [18] and 12.9 µM (active) in assay [19]. Also, the half-maximal inhibitory concentration (IC50) (usually the concentration needed to halve the response being measured) in “cells” was 2.81 µM (active); with CHO it was 2.72 µM (active); on Beta Lactamase it was 30.5 µM (inactive).

Values taken from ChEMBL document CHEMBL1201862, “PubChem BioAssay data set” (2004).
